Reference: article PMC8434392, “Harnessing the Anti-Nociceptive Potential of NK2 and NK3 Ligands in the Design of New Multifunctional μ/δ-Opioid Agonist–Neurokinin Antagonist Peptidomimetics” (Molecules, 2021)
Read-outs that look alike come from different tables or passages of the source. Marks after values point to notes of the source that are not given here. Numbered stars: 1 amine (or outer) side, 2 acyl side, 3 side chain; on linkers, the order of the positions; unused ones are H or OH. Square brackets hold non-standard residues; d marks the D form. Peptide text beside a SMILES is read from it. * marks the point of attachment. X3 = O=C(c1c(OCCN[*:1])c(-c2ccccc2)nc2ccccc12)[*:2]; X1 = O=C1[C@@H](N[*:1])Cc2ccccc2CN1CCC(=O)[*:2]; NH(1S-phenylpropyl) = CC[C@H](N*)c1ccccc1; Dmt = Cc1cc(O)cc(C)c1C[C@H](N)C(=O)O; 4Amb = NCc1ccc(C(=O)O)cc1; Ac5c = NC1(C(=O)O)CCCC1; X2 = C(CN*)CN1CCOCC1

Legend:
[1] = molecular target: T1, human recombinant DOR (Homo sapiens, UniProt P41143); assay: Calcium mobilization assay, CHO DOR cells with GαqG66Di5; assay type: cell-based; conditions: for DOR EC50 ± SEM (nM) / decreased potency at DOR compared to reference DPDPE / EC50: calcium mobilization; for DOR EC50 ± SEM (nM) / EC50: CHO DOR GαqG66Di5, maximum tested concentration 10 µM; for DOR α ± SEM: intrinsic activity: Emax of ligand / Emax of DPDPE; for EC50: read-out: DOR EC50 ± SEM
T1 construct: expressed in transfected cells; host or cells: CHO cells (gift from Prof. Girolamo Calo', Ferrara University)

[2] = molecular target: T2, human recombinant MOR (Homo sapiens, UniProt P35372); assay: Opioid receptor radioligand binding assay, MOR
T2 construct: expressed in transfected cells; host or cells: CHO cells (gift from Prof. Girolamo Calo', Ferrara University)

[3] = molecular target: T2, human recombinant MOR; assay: Calcium mobilization assay, CHO MOR cells with Gαqi5; assay type: cell-based; conditions: for EC50 / reduction in potency at MOR compared to dermorphin / reduction in potency at MOR compared to opioid parent pharmacophore KGOP01: calcium mobilization; for EC50: CHO MOR Gαqi5, maximum tested concentration 10 µM, read-out: MOR EC50 ± SEM; for MOR α ± SEM: intrinsic activity: Emax of ligand / Emax of dermorphin
[4] = molecular target: T3, human recombinant KOR (Homo sapiens, UniProt P41145); assay: Opioid receptor radioligand binding assay, KOR
T3 construct: expressed in transfected cells; host or cells: CHO cells (gift from Prof. Girolamo Calo', Ferrara University)

[5] = molecular target: T1, human recombinant DOR; assay: Opioid receptor radioligand binding assay, DOR
[6] = molecular target: T3, human recombinant KOR; assay: Calcium mobilization assay, CHO KOR cells with Gαqi5; assay type: cell-based; conditions: for KOR α ± SEM: intrinsic activity: Emax of ligand / Emax of dynorphin A
[7] = molecular target: T4, NK2 (h) (Homo sapiens, UniProt P21452); assay: NK2 radioligand binding assay (Eurofins)
T4 construct: host or cells: CHO cells
T4 sequence (P21452 1-398): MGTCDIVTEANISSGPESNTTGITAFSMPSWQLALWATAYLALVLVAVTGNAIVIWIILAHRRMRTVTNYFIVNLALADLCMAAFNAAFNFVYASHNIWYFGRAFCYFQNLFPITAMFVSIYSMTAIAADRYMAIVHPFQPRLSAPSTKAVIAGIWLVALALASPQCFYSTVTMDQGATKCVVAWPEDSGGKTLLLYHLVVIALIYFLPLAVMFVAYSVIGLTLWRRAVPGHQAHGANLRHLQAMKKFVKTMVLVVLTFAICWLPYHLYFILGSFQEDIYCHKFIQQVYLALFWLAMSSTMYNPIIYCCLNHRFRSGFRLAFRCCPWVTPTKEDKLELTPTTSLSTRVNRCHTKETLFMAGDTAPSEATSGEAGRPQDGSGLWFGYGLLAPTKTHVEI

[8] = molecular target: T1, human recombinant DOR; design: method as in PMID 23007594; conditions: intrinsic activity; data from reported literature ref 30; cited from earlier work
[9] = molecular target: T5, NK3 (h) (Homo sapiens, UniProt P29371); assay: NK3 radioligand binding assay (Eurofins)
T5 construct: host or cells: CHO cells
T5 sequence (P29371 1-465): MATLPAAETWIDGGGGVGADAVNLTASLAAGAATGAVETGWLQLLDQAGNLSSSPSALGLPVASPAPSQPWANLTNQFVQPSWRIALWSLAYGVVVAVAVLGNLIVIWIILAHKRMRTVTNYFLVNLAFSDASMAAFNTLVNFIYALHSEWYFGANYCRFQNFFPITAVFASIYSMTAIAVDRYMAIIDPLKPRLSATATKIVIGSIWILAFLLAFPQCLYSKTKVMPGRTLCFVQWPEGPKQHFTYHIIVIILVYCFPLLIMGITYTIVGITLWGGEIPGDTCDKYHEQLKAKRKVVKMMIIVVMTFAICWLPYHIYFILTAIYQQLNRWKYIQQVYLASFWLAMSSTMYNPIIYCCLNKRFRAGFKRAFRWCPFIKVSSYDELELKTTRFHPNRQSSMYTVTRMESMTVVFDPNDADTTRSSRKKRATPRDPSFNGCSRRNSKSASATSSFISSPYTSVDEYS

[10] = [3H]DAMGO displacement, CHO cell membranes, human recombinant receptor
[11] = [3H][Ile5,6]deltorphin-2 displacement, CHO cell membranes, human recombinant receptor
[12] = calcium mobilization, CHO KOR Gαqi5, maximum tested concentration 10 µM, crc = concentration-response curve
[13] = [125I]NKA 0.1 nM, human recombinant (CHO cells), 60 min RT, n.c. = less than 25% inhibitory binding at highest validated test concentrations, read-out: IC50 [nM] ± SEM, NK2 receptor
[14] = [125I]NKA 0.1 nM, human recombinant (CHO cells), Cheng Prusoff, n.c. = not calculated, read-out: Ki [nM] ± SEM, NK2 receptor

T1 sequence (P41143 whole entry): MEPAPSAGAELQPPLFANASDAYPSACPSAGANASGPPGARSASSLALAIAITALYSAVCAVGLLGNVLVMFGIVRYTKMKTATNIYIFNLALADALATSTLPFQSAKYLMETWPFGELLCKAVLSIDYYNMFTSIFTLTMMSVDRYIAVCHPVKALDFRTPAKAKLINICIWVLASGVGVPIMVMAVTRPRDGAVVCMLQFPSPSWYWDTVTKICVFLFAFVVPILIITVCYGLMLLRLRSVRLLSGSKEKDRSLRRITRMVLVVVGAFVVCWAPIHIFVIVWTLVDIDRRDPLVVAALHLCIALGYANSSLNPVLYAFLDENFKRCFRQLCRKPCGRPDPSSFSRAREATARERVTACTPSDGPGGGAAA
T3 sequence (P41145 whole entry): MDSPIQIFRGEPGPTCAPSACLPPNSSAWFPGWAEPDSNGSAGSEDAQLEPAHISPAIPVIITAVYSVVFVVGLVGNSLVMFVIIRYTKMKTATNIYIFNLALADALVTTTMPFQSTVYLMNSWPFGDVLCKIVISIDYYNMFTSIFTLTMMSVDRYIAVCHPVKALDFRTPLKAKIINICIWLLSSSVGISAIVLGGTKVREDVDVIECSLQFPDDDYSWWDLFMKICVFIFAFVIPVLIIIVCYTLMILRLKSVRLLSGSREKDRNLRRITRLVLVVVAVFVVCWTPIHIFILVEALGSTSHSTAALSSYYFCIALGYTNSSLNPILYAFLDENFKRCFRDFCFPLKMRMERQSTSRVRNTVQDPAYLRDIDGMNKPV
T2 sequence (P35372 whole entry): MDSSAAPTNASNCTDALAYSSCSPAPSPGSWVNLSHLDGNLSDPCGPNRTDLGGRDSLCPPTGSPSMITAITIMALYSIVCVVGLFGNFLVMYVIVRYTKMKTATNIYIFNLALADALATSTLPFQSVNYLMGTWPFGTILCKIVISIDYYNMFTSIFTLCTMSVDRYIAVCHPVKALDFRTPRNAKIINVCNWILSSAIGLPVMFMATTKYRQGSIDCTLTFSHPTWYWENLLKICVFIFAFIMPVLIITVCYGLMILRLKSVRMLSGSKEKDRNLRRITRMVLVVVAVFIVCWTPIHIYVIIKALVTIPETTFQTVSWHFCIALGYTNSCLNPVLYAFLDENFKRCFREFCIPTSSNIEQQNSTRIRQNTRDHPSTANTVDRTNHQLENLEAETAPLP

SMILES | DOR α ± SEM [1] | Ki [2] [nM] | EC50 [3] [nM] | MOR α ± SEM [3] | Ki [4] [nM] | Ki [5] [nM] | KOR EC50 ± SEM (nM) [6, 12] | KOR α ± SEM [6] | EC50 [1] [nM] | other results
Cc1cc(O)cc(C)c1C[C@H](N)C(=O)N[C@H](CCCNC(=N)N)C(=O)N[C@@H](Cc1ccccc1)C(=O)N[C@@H](CCCCN)C(=O)NCc1ccc(C(=O)NC2(C(=O)N[C@H](Cc3ccccc3)C(=O)NCCCN3CCOCC3)CCCC2)cc1 [SBL-OPNK-6] (H-[Dmt][dR]FK[4Amb][Ac5c][dF]-X2) | inactive | 74.93 ± 0.15 | 988 ± 82 | 0.67 ± 0.05 | 100 ± 1.16 | 22400 | crc incomplete | crc incomplete |  | DOR EC50 ± SEM (nM) [1]: inactive; Ki [nM] ± SEM MOR [2, 10]: Weak binding; Ki [nM] ± SEM DOR [5, 11]: did not bind efficiently
Cc1cc(O)cc(C)c1C[C@H](N)C(=O)N[C@H](CCCNC(=N)N)C(=O)N[C@H]1Cc2ccccc2CN(CCC(=O)NCc2ccc(C(=O)NC3(C(=O)N[C@H](Cc4ccccc4)C(=O)NCCCN4CCOCC4)CCCC3)cc2)C1=O [SBL-OPNK-7] (H-[Dmt][dR][X1][4Amb][Ac5c][dF]-X2) | 1.02 ± 0.02 |  | 13.1 ± 1.84 | 0.89 ± 0.04 |  |  | completely inactive | inactive | 66.5 ± 11.7 | IC50 [7, 13]: 0.63 ± 0.22 nM; Ki [7, 14]: 0.34 ± 0.24 nM; decreased potency at DOR compared to reference DPDPE [1]: 2–3 fold; Ki ([2]; [3H]DAMGO displacement, CHO cell membranes, human recombinant receptor, read-out: Ki [nM] ± SEM MOR): 2.83 ± 0.02 nM; reduction in potency at MOR compared to dermorphin [3]: 3 fold; reduction in potency at MOR compared to opioid parent pharmacophore KGOP01 [3]: 24 fold; Ki ([4]; [3H]nor-BNI displacement, CHO cell membranes, human recombinant receptor, read-out: Ki [nM] ± SEM KOR): 53 ± 3.2 nM; Ki ([5]; [3H][Ile5,6]deltorphin-2 displacement, CHO cell membranes, human recombinant receptor, read-out: Ki [nM] ± SEM DOR): 3.26 ± 0.09 nM
CC[C@H](C)[C@H](NC(=O)[C@H](CCCNC(=N)N)NC(=O)[C@H](CCCNC(=N)N)NC(=O)[C@H](CC(C)C)NC(=O)[C@H](Cc1ccccc1)NC(=O)CNC(=O)CNC(=O)[C@@H](N)Cc1ccc(O)cc1)C(=O)N[C@@H](CCCNC(=N)N)C(=O)N1CCC[C@H]1C(=O)N[C@@H](CCCCN)C(=O)N[C@@H](CC(C)C)C(=O)N[C@@H](CCCCN)C(=O)N[C@@H](Cc1c[nH]c2ccccc12)C(=O)N[C@@H](CC(=O)O)C(=O)N[C@@H](CC(N)=O)C(=O)N[C@@H](CCC(N)=O)C(=O)O [dynorphin A] |  |  |  |  |  |  |  |  |  | DOR α ± SEM [8]: 0.99 ± 0.04 ^a
Cc1cc(O)cc(C)c1C[C@H](N)C(=O)N[C@H](CCCNC(=N)N)C(=O)N[C@@H](Cc1ccccc1)C(=O)N[C@@H](CCCCN)C(=O)N[C@@H](CC(=O)O)C(=O)N[C@@H](Cc1ccc(O)cc1)C(=O)N[C@H](Cc1c[nH]c2ccccc12)C(=O)N[C@H](C(=O)N[C@H](Cc1c[nH]c2ccccc12)C(=O)N[C@H](Cc1c[nH]c2ccccc12)C(=O)N[C@@H](CCCCN)C(N)=O)C(C)C [SBL-OPNK-4] (H-[Dmt][dR]FKDY[dW]V[dW][dW]K-NH2) | inactive | 1.02 ± 0.03 | 815 ± 145 | 0.74 ± 0.05 | 90.5 ± 5.69 | 1250 | crc incomplete | crc incomplete |  | DOR EC50 ± SEM (nM) [1]: inactive; Ki [nM] ± SEM DOR [5, 11]: did not bind efficiently
CC(=O)N[C@@H](CC(=O)O)C(=O)N[C@@H](Cc1ccc(O)cc1)C(=O)N[C@H](Cc1c[nH]c2ccccc12)C(=O)N[C@H](C(=O)N[C@H](Cc1c[nH]c2ccccc12)C(=O)N[C@H](Cc1c[nH]c2ccccc12)C(=O)N[C@@H](CCCCN)C(N)=O)C(C)C [SBL-OPNK-1] (Ac-DY[dW]V[dW][dW]K-NH2) |  |  |  |  |  |  |  |  |  | IC50 [7, 13]: 33.6 ± 11.9 nM; Ki [7, 14]: 18.3 ± 13 nM; lower NK2 binding affinity compared to the reference compound ([7]; reference [Nle10]-NKA(4-10)): about 17 fold
CC[C@H](NC(=O)c1c(OCCNC(=O)CCN2Cc3ccccc3C[C@H](NC(=O)[C@@H](CCCNC(=N)N)NC(=O)[C@@H](N)Cc3c(C)cc(O)cc3C)C2=O)c(-c2ccccc2)nc2ccccc12)c1ccccc1 [SBL-OPNK-9] | 1.02 ± 0.03 | 5.43 ± 0.08 | 31.3 ± 7.39 | 0.83 ± 0.05 | 97.1 ± 4.72 | 6.57 ± 4.02 | crc incomplete | crc incomplete | 84.1 ± 18 | decreased potency at DOR compared to reference DPDPE [1]: 2–3 fold; IC50 [9]: 6.7 ± 2.4 nM; Ki [9]: 3.6 ± 2.5 nM; increase of NK3 affinity and potency compared to reference SB 222200 [9]: 1.5 fold
CC1(C)SSC(C)(C)[C@@H](NC(=O)[C@@H](N)Cc2ccc(O)cc2)C(=O)NCC(=O)N[C@@H](Cc2ccccc2)C(=O)N[C@H]1C(=O)O [DPDPE, reference compound] |  |  |  |  |  |  | inactive | inactive |  | 
Cc1cc(O)cc(C)c1C[C@H](N)C(=O)N[C@H](CCCNC(=N)N)C(=O)N[C@H]1Cc2ccccc2CN(CCC(N)=O)C1=O [KGOP01, H-Dmt-D-Arg-Aba-βAla-NH2, reference compound] |  |  | 0.54 ± 0.06 |  | 72.7 ± 4.32 | 4.88 ± 0.11 | crc incomplete |  | 75.6 ± 13.1 | 
CC[C@H](NC(=O)c1c(OCCNC(=O)[C@H](CCCCN)NC(=O)[C@H](Cc2ccccc2)NC(=O)[C@@H](CCCNC(=N)N)NC(=O)[C@@H](N)Cc2c(C)cc(O)cc2C)c(-c2ccccc2)nc2ccccc12)c1ccccc1 [SBL-OPNK-8] (H-[Dmt][dR]FK[X3]-{NH(1S-phenylpropyl)}) | inactive | 120 ± 5.25 | 916 ± 106 | 0.65 ± 0.02 | 104 ± 6.12 | 4570 | crc incomplete | crc incomplete |  | DOR EC50 ± SEM (nM) [1]: inactive; Ki [nM] ± SEM MOR [2, 10]: Weak binding; Ki [nM] ± SEM DOR [5, 11]: did not bind efficiently
Cc1cc(O)cc(C)c1C[C@H](N)C(=O)N[C@H](CCCNC(=N)N)C(=O)N[C@H]1Cc2ccccc2CN(CCC(=O)N[C@@H](CC(=O)O)C(=O)N[C@@H](Cc2ccc(O)cc2)C(=O)N[C@H](Cc2c[nH]c3ccccc23)C(=O)N[C@H](C(=O)N[C@H](Cc2c[nH]c3ccccc23)C(=O)N[C@H](Cc2c[nH]c3ccccc23)C(=O)N[C@@H](CCCCN)C(N)=O)C(C)C)C1=O [SBL-OPNK-5] (H-[Dmt][dR][X1]DY[dW]V[dW][dW]K-NH2) | 1.01 ± 0.03 | 2.11 ± 0.04 | 10.2 ± 0.67 | 0.91 ± 0.04 | 90.7 ± 0.94 | 10 ± 3.2 |  | 0.44 ± 0.06 | 118 ± 26 | IC50 [7]: 3 ± 1 nM; Ki [7]: 1.6 ± 1.1 nM; decreased potency at DOR compared to reference DPDPE [1]: 2–3 fold; reduction in potency at MOR compared to dermorphin [3]: 2 fold; reduction in potency at MOR compared to opioid parent pharmacophore KGOP01 [3]: 18 fold; EC50 ([6]; calcium mobilization, CHO KOR Gαqi5, maximum tested concentration 10 µM, crc = concentration-response curve, read-out: KOR EC50 ± SEM): 415 ± 133 nM
CC[C@H](NC(=O)c1c(OCCNC(C)=O)c(-c2ccccc2)nc2ccccc12)c1ccccc1 [SBL-OPNK-3] |  |  |  |  |  |  |  |  |  | IC50 ([9]; [3H]SR 142801 0.4 nM, human recombinant (CHO cells), 120 min RT, read-out: IC50 [nM] ± SEM, NK3 receptor): 20.3 ± 7.2 nM; Ki ([9]; [3H]SR 142801 0.4 nM, human recombinant (CHO cells), Cheng Prusoff, read-out: Ki [nM] ± SEM, NK3 receptor): 11 ± 7.8 nM
